According to article PMC7441570 (Chemical biology & drug design, 2019):

Experiments:
in vitro = settings: human, Caco-2
[1] = tested on: bacterial (Escherichia coli) RNase H; settings: read-out: bacterial (Escherichia coli) RNase H IC50; ref Budihas et al., 2005; cited from earlier work
HIV-1 RNase H = settings: read-out: HIV-1 RNase H IC50; in vitro; ref Budihas et al., 2005; cited from earlier work
human RNase H = settings: read-out: human RNase H IC50; ref Budihas et al., 2005; cited from earlier work

Compound	Papp (in vitro) [×10⁻⁶ cm/s]	recovery (in vitro) [%]	IC50 [1] [µM]	IC50 (HIV-1 RNase H) [µM]	IC50 (human RNase H) [µM]
COCCc1ccc(OCC(O)CNC(C)C)cc1 (stereo not shown) [metoprolol]	16.3	> 93			
CC(C)(C)NCC(O)COc1cccc2c1CC(O)C(O)C2 (stereo not shown) [nadolol]	0.11	> 93			
CC(C)c1ccc(O)c(=O)c(O)c1 [β-thujaplicinol]			50	~0.2	5.7
